From patent publication US7411066B2, “Amino methylated 2-pyridinones” (priority 2004, dated 2008)

Columns and labels:
[1] = test system: NU14 biofilm; experiment: Biofilm Assay (crystal violet stain on PVC plates); assay type: cell-based, Escherichia coli; settings: 48 hrs at room temperature, absorbance at 600 nm; untreated NU14 = 100%
Experimental: The Biofilm Assay was carried out according to the following steps:
Day 1 Set Up Biofilm Growth on PVC Plates
1. Sterilize PVC plates (96-well round bottom polyvinyl chloride [PVC] plates; Falcon #353911) and PVC Lids (Falcon #353913) in tissue culture hood under UV irradiation for at least 30 min.
2. Make dilution (from overnight cultures) or suspension (from either colonies on plates or freezer stocks) of bacterial cultures. Make enough of bacterial cultures for the number of wells needed. Bacterial culture need to be very dilute: at least 1:1,000 fold dilution from overnight cultures or a small quantity from colonies or freezer stocks.
3. Add 100 μl of bacterial cultures into each well. Make sure to have 1 well with LB alone as negative control and 1 well without anything for blank.
4. Cover plates with lids and leave plates undisturbed at room temperature for 48 hrs.
Day 3 Assay Biofilm With Crystal Violet Stain
5. Prepare enough PBS (w/out Mg^2+ Ca^2+) to wash biofilm plates (need at least 3 L PBS for 1-5 plates). Could use mpH2O instead of PBS.
6. Get a clean 4 L plastic beaker. Cover the bench with a large piece of absorbent pad.
7. Fill 3 containers (large enough to dip the 96-well plates in) with PBS.
8. Start washing a biofilm plate by dumping out bacterial cultures into the beaker. (Treat contents in this beaker as biohazard. Need to bleach the content before emptying it into drain.)
9. Fill the biofilm plate in the first PBS container and shake off PBS in the beaker. Rinse the biofilm 1× in the first PBS container. Put the biofilm plate into the second PBS container and rinse 2×.
10. Put the biofilm plate in the third PBS container and let sit.
11. Proceed to wash a second biofilm plate if there are any.
12. While the second biofilm plate is in the second container, rinse the first biofilm plate 1× and remove it from PBS. Decant residual PBS by banging the plate on paper towels on the bench. Leave the plate up-side-down on a clean paper towel and let the plate dry.
13. Put the second biofilm plate into the third PBS container and let sit.
14. Proceed to wash a third biofilm plate if applicable.
15. Repeat steps 8-14 until all plates are washed.
16. Let washed biofilm plates air-dry for at least 15 min.
Crystal Violet Stain and Wash
17. Fill 4 containers (large enough to dip the 96-well plates in) with PBS.
18. With a multi-channel pipet, add 125 μl of 1% Crystal Violet (in mpH2O). Stain biofilm plates sequentially for 10 min. (not more than 15 min). Give at least 2 minute break in-between staining each plates. If more than 4 biofilm plates, might want to consider staining and washing them in batches.
19. Start washing biofilm plates as above.
20. Let the washed plates air-dry for 10 minor so. […]
24. Proceed immediately to the Plate Reader and read the absorbance of the plate at 600 nm. […]

[2] = test system: NU14 adherence to type 5637 bladder cell line; experiment: Infection of bladder cells in vitro (Adherence Assay); assay type: cell-based, Escherichia coli; settings: 5637 bladder cells; untreated NU14 = 100%
Experimental: Infection of Bladder Cells in vitro (Adherence Assay)
The infection of bladder cells in vitro was carried out according to the following steps:
Preparation of Tissue Culture Cells (Type 5637 Bladder Cell Line)
1. Place 1 ml of RPMI/10% FBS containing 1:20 dilution of 5637 cells in each well of 24 well plate.
2. Place in incubator for 3 days or until confluent growth.
Preparation of Bacterial Cells (Strains NU14 and UTI89)
1. Inoculate 20 ml of LB containing NU14 with a single colony or a loop from a frozen stock to a 250 ml flask.
2. Static growth at 37° C. for 2 days to induce pili production.
3. Harvest cells at 4,000×g for 10 minutes.
4. Resuspend in 5 ml of PBS ([…])
Infection of Tissue Culture Cells In Vitro
1. Wash each well with PBS MgCl2/CaCl2.
2. Place 1 ml of fresh medium to each well.
3. Add 10 μl of bacterial cells to each well. Triplicate plates.
4. Spin plate at 1800 rpm for 5 minutes.
5. View under 40× to see−2-3 bacterial cells/epithelial cell.
6. Place in lower incubator for 2 hours.
7. Wash two plates 5× with PBS MgCl2/CaCl2. Lyse by addition of 0.1% sarkosyl/0.5% glucose/PBS—MgCl2/CaCl2 one set and dilute for CFU.

| Compound | Bioflim Assay % of Wild Type [1] | Adherence Assay % of Wild Type [2] |
| --- | --- | --- |
| Cc1c(-c2ccccc2)c2n(c(=O)c1CN(C)C)[C@H](C(=O)[O-])CS2.[Li+] | 73.1% | 97.6% |
| CN(C)Cc1c(Cc2cccc3ccccc23)c(-c2ccccc2)c2n(c1=O)[C@H](C(=O)[O-])CS2.[Li+] | 6.9% | 21.8% |
| O=C([O-])[C@@H]1CSc2c(-c3ccccc3)c(Cc3cccc4ccccc34)c(CN3CCOCC3)c(=O)n21.[Li+] | 6.8% | 14.3% |
| O=C([O-])[C@@H]1CSc2c(C3CC3)c(Cc3cccc4ccccc34)c(CN3CCOCC3)c(=O)n21.[Li+] | 8.3% | 12.2% |
